Results from patent US20070197512A1, “Carboxylic Acid Compounds and Use Thereof” (Japan Tobacco Inc., priority 2006, published 2007).

target: T1, human URAT1 (Homo sapiens, UniProt Q96S37); experiment: Uric acid transport inhibitory test using human URAT1-expressing cells; type: cell-based; conditions: human URAT1-expressing HEK293 cells, 14C-uric acid 50 μM, uptake 5 min, room temperature; read-out: hURAT1 IC50
T1 construct: Human URAT1 full length cDNA was subcloned to expression vector pcDNA3.1; expressed in transfected cells; host or cells: HEK293 cells (pcDNA3.1, geneticin-selected)
T1 sequence (Q96S37 1-553): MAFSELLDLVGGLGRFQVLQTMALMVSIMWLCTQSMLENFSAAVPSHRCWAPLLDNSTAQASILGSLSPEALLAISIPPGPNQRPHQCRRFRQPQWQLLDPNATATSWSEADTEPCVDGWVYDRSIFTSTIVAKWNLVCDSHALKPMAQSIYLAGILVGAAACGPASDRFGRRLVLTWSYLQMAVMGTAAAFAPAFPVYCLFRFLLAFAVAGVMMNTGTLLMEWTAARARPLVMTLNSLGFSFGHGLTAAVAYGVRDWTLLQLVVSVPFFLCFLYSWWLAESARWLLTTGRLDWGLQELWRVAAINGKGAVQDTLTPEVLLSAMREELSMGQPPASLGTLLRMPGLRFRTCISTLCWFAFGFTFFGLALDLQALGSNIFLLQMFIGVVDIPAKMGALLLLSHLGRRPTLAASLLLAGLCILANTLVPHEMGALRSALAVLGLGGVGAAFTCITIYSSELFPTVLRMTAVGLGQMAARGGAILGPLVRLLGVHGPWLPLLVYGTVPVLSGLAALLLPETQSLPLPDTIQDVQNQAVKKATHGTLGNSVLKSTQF
Source text: Experimental Example 1 Uric Acid Transport Inhibitory Test Using Human URAT1-Expressing Cells
Human URAT1 full length cDNA was subcloned to expression vector pcDNA3.1 and human URAT1 gene was transfected into human embryonic kidney derived cell line (HEK293 cells) by liposome method using Lipofectamine2000. Simultaneously, HEK293 cells transfected with expression vector pcDNA3.1 alone (hereinafter mock cells) were also produced. HEK293 cells expressing human URAT1 gene or mock cells were selected with geneticin resistance as an index. The functional expression of human URAT1 gene was confirmed by a method similar to the following method, using ^14C-uric acid transport into the cells as an index.
Human URAT1-expressing HEK293 cells or mock cells were cultured in Dulbecco's modified Eagle's MEM medium (high glucose) containing 10% fetal bovine serum, 0.5 mg/mL geneticin sulfate, 100 units/mL penicillin and 100 μg/mL streptomycin under the conditions of 37° C. and 5% CO2 in an incubator. The cells were plated in a 96 well plate (poly-D-Lysine coated) at 1×10^5 cells/well and the following uric acid transport inhibitory test was performed 24 hr later. This test was performed at room temperature.
After the medium was removed by aspiration from each well, the cells were washed once with Hank's Balanced Salt Solution (HBSS) and preincubated with HBSS (100 μL/well) for 5 min. HBSS was aspirated and an assay buffer (wherein NaCl in the above-mentioned HBSS had been substituted with Na-gluconate) containing various concentrations of the Example compound and a radioactive ligand (14C-uric acid; final concentration 50 μM) was added to each well at 50 μL/well and an uptake reaction was carried out for 5 min. After the reaction, the cells were washed twice with ice-cold HBSS (150 μL/well), and Microscinti™ 20 (PerkinElmer) was added at 50 μL/well. The cells were lysed by stirring and the radioactivity of each well was measured by a liquid scintillation counter (TOP COUNT, Packard).
The uric acid transport rate (%) of the Example compound at each concentration was calculated relative to the radioactivity (difference in radioactivity between human URAT1-expressing HEK293 cells and mock cells without addition of Example compound (DMSO addition)) showing URAT1 specific uric acid transport as 100%, and the concentration (IC50) of the Example compound necessary for inhibiting the uric acid transport rate by 50% was determined. In Table 24-Table 27, “+++” means IC50 value of less than 300 nM, “++” means IC50 value of 300 nM to less than 3000 nM, and “+” means IC50 value of not less than 3000 nM.

**Q.** With `Cc1ccc2c(c1)OC(c1ccccc1)C(=O)N2CCC(=O)O` (stereo not drawn) [Example 48, 3-(7-methyl-3-oxo-2-phenyl-2,3-dihydrobenzo[1,4]oxazin-4-yl)propionic acid] as the compound, how does the IC50 read?
**A.** ≥ 3 µM

**Q.** For `CC(C)c1cccc2c1OC(c1ccccc1)CN2C(=O)/C=C/C(=O)O` (stereo not drawn) [Example 45, (E)-4-(8-isopropyl-2-phenyl-2,3-dihydrobenzo[1,4]oxazin-4-yl)-4-oxo-2-butenoic acid], which IC50 is on record?
**A.** 0.3 to 3 µM

**Q.** How did the IC50 turn out when `CC(C)c1cccc2c1OC(C)(C)C(=O)N2CCC(=O)O` [Example 33, 3-(8-isopropyl-2,2-dimethyl-3-oxo-2,3-dihydrobenzo[1,4]oxazin-4-yl)propionic acid] was run?
**A.** ≥ 3 µM

**Q.** With `CC(C)c1cccc2c1OC(C(C)C)C(=O)N2CC(C)(C)C(=O)O` (stereo not drawn) [Example 42, 3-(2,8-diisopropyl-3-oxo-2,3-dihydrobenzo[1,4]oxazin-4-yl)-2,2-dimethylpropionic acid] as the compound, how does the IC50 read?
**A.** 0.3 to 3 µM

**Q.** How did the IC50 turn out when `O=C(O)CCN1C(=O)C(c2ccccc2)Oc2cc(Cl)ccc21` (stereo not drawn) [Example 76, 3-(7-chloro-3-oxo-2-phenyl-2,3-dihydrobenzo[1,4]oxazin-4-yl)propionic acid] was run?
**A.** ≥ 3 µM

**Q.** With `CC(C)C1Oc2c(Br)cccc2N(CCC(=O)O)C1=O` (stereo not drawn) [Example 51, 3-(8-bromo-2-isopropyl-3-oxo-2,3-dihydrobenzo[1,4]oxazin-4-yl)propionic acid] as the compound, how does the IC50 read?
**A.** 0.3 to 3 µM

**Q.** For `CC(C)C1Oc2c(C3CCCCC3)cccc2N(CCC(=O)O)C1=O` (stereo not drawn) [Example 50, 3-(8-cyclohexyl-2-isopropyl-3-oxo-2,3-dihydrobenzo[1,4]oxazin-4-yl)propionic acid], which IC50 is on record?
**A.** ≥ 3 µM

**Q.** For `Cc1ccc2c(c1)OC(c1ccccc1)CN2C(=O)/C=C/C(=O)O` (stereo not drawn) [Example 57, (E)-4-(7-methyl-2-phenyl-2,3-dihydrobenzo[1,4]oxazin-4-yl)-4-oxo-2-butenoic acid], which IC50 is on record?
**A.** ≥ 3 µM

**Q.** Which IC50 does the source give for `CCc1cccc2c1OC(C(C)C)C(=O)N2CCC(=O)O` (stereo not drawn) [Example 53, 3-(8-ethyl-2-isopropyl-3-oxo-2,3-dihydrobenzo[1,4]oxazin-4-yl)propionic acid] here?
**A.** 0.3 to 3 µM

**Q.** For `CC(C)C1Oc2ccc(Cl)cc2N(CCC(=O)O)C1=O` (stereo not drawn) [Example 63, 3-(6-chloro-2-isopropyl-3-oxo-2,3-dihydrobenzo[1,4]oxazin-4-yl)propionic acid], which IC50 is on record?
**A.** < 0.3 µM

**Q.** How did the IC50 turn out when `CC(C)c1cccc2c1OC(c1ccccc1)C(=O)N2CC(=O)O` (stereo not drawn) [Example 26, (8-isopropyl-3-oxo-2-phenyl-2,3-dihydrobenzo[1,4]oxazin-4-yl)acetic acid] was run?
**A.** ≥ 3 µM

**Q.** For `Cc1ccc2c(c1)N(CCC(=O)O)C(=O)C(c1ccccc1)O2` (stereo not drawn) [Example 75, 3-(6-methyl-3-oxo-2-phenyl-2,3-dihydrobenzo[1,4]oxazin-4-yl)propionic acid], which IC50 is on record?
**A.** 0.3 to 3 µM

**Q.** Which IC50 does the source give for `CC(C)c1cccc2c1OC(C(C)C)CN2C(=O)CC(=O)O` (stereo not drawn) [Example 31, 3-(2,8-diisopropyl-2,3-dihydrobenzo[1,4]oxazin-4-yl)-3-oxopropionic acid] here?
**A.** ≥ 3 µM

**Q.** Which IC50 does the source give for `O=C(O)/C=C/C(=O)N1CC(c2ccccc2)Oc2cc(Cl)ccc21` (stereo not drawn) [Example 70, (E)-4-(7-chloro-2-phenyl-2,3-dihydrobenzo[1,4]oxazin-4-yl)-4-oxo-2-butenoic acid] here?
**A.** ≥ 3 µM

**Q.** How did the IC50 turn out when `CC(C)c1cccc2c1OC(C)(C)C(=O)N2CC(=O)O` [Example 34, (8-isopropyl-2,2-dimethyl-3-oxo-2,3-dihydrobenzo[1,4]oxazin-4-yl)acetic acid] was run?
**A.** ≥ 3 µM

**Q.** For `CC(C)c1cccc2c1OC(C(C)C)C(=O)N2Cc1ccccc1C(=O)O` (stereo not drawn) [Example 41, 2-[(2,8-diisopropyl-3-oxo-2,3-dihydrobenzo[1,4]oxazin-4-yl)methyl]benzoic acid], which IC50 is on record?
**A.** ≥ 3 µM

**Q.** Which IC50 does the source give for `CC(C)c1cccc2c1OC(C(C)C)C(=S)N2CCCC(=O)O` (stereo not drawn) [Example 20, 4-(2,8-diisopropyl-3-thioxo-2,3-dihydrobenzo[1,4]oxazin-4-yl)butyric acid] here?
**A.** ≥ 3 µM

**Q.** For `O=C(O)CCC(=O)N1CCOc2ccccc21` [Example 23, 4-(2,3-dihydrobenzo[1,4]oxazin-4-yl)-4-oxobutyric acid], which IC50 is on record?
**A.** ≥ 3 µM

**Q.** How did the IC50 turn out when `CCC1Oc2c(C(C)C)cccc2N(CCC(=O)O)C1=O` (stereo not drawn) [Example 40, 3-(2-ethyl-8-isopropyl-3-oxo-2,3-dihydrobenzo[1,4]oxazin-4-yl)propionic acid] was run?
**A.** 0.3 to 3 µM

**Q.** How did the IC50 turn out when `CC(C)C1Oc2ccc(C(F)(F)F)cc2N(CCC(=O)O)C1=O` (stereo not drawn) [Example 97, 3-(2-isopropyl-3-oxo-6-trifluoromethyl-2,3-dihydrobenzo[1,4]oxazin-4-yl)propionic acid] was run?
**A.** 0.3 to 3 µM

**Q.** For `CC(C)C1Oc2c(ccc3ccccc23)N(CCC(=O)O)C1=O` (stereo not drawn) [Example 99, 3-(2-isopropyl-3-oxo-2,3-dihydronaphtho[1,2-b][1,4]oxazin-4-yl)propionic acid], which IC50 is on record?
**A.** ≥ 3 µM

**Q.** `Cc1ccc2c(c1)OC(C(C)C)C(=O)N2CCC(=O)O` (stereo not drawn) [Example 43, 3-(2-isopropyl-7-methyl-3-oxo-2,3-dihydrobenzo[1,4]oxazin-4-yl)propionic acid] was tested. Which IC50 did it give?
**A.** 0.3 to 3 µM

**Q.** `O=C(O)/C=C/C(=O)N1CCOc2ccccc21` [Example 28, (E)-4-(2,3-dihydrobenzo[1,4]oxazin-4-yl)-4-oxo-2-butenoic acid] was tested. Which IC50 did it give?
**A.** ≥ 3 µM

**Q.** For `CC(C)c1cccc2c1OCC(=O)N2CCC(=O)O` [Example 35, 3-(8-isopropyl-3-oxo-2,3-dihydrobenzo[1,4]oxazin-4-yl)propionic acid], which IC50 is on record?
**A.** ≥ 3 µM

**Q.** For `CCc1cccc2c1OC(C(C)C)CN2C(=O)/C=C/C(=O)O` (stereo not drawn) [Example 60, (E)-4-(8-ethyl-2-isopropyl-2,3-dihydrobenzo[1,4]oxazin-4-yl)-4-oxo-2-butenoic acid], which IC50 is on record?
**A.** 0.3 to 3 µM

**Q.** For `COC(=O)CN1C(=O)COc2ccccc21` [Example 1, (3-oxo-2,3-dihydrobenzo[1,4]oxazin-4-yl)acetic acid methyl ester], which IC50 is on record?
**A.** ≥ 3 µM

**Q.** How did the IC50 turn out when `Cc1cc(Cl)c2c(c1)N(CCC(=O)O)C(=O)C(C(C)C)O2` (stereo not drawn) [Example 98, 3-(8-chloro-2-isopropyl-6-methyl-3-oxo-2,3-dihydrobenzo[1,4]oxazin-4-yl)propionic acid] was run?
**A.** < 0.3 µM

**Q.** `CC(C)C1CN(C(=O)/C=C/C(=O)O)c2cccc(C3CCCCC3)c2O1` (stereo not drawn) [Example 79, (E)-4-(8-cyclohexyl-2-isopropyl-2,3-dihydrobenzo[1,4]oxazin-4-yl)-4-oxo-2-butenoic acid] was tested. Which IC50 did it give?
**A.** ≥ 3 µM

**Q.** How did the IC50 turn out when `CCC1CN(C(=O)/C=C/C(=O)O)c2cccc(C(C)C)c2O1` (stereo not drawn) [Example 67, (E)-4-(2-ethyl-8-isopropyl-2,3-dihydrobenzo[1,4]oxazin-4-yl)-4-oxo-2-butenoic acid] was run?
**A.** 0.3 to 3 µM

**Q.** For `CC(C)C1Sc2ccccc2N(CC(=O)O)C1=O` (stereo not drawn) [Example 30, (2-isopropyl-3-oxo-2,3-dihydrobenzo[1,4]thiazin-4-yl)acetic acid], which IC50 is on record?
**A.** ≥ 3 µM

**Q.** `COc1cc(C)c2c(c1)N(CCC(=O)O)C(=O)C(C(C)C)O2` (stereo not drawn) [Example 104, 3-(2-isopropyl-6-methoxy-8-methyl-3-oxo-2,3-dihydrobenzo[1,4]oxazin-4-yl)propionic acid] was tested. Which IC50 did it give?
**A.** < 0.3 µM

**Q.** `CC(C)(C)c1cccc2c1OC(c1ccccc1)C(=O)N2CCC(=O)O` (stereo not drawn) [Example 49, 3-(8-tert-butyl-3-oxo-2-phenyl-2,3-dihydrobenzo[1,4]oxazin-4-yl)propionic acid] was tested. Which IC50 did it give?
**A.** 0.3 to 3 µM

**Q.** Which IC50 does the source give for `CC(C)C1CN(C(=O)/C=C/C(=O)O)c2ccc(Cl)cc2O1` (stereo not drawn) [Example 68, (E)-4-(7-chloro-2-isopropyl-2,3-dihydrobenzo[1,4]oxazin-4-yl)-4-oxo-2-butenoic acid] here?
**A.** 0.3 to 3 µM
